Data taken from patent US8846125B2, “Enaminocarbonyl compounds and their use” (Instytut Chemii Organicznej, Polska Akademia Nauk, priority 2009, dated 2014).

What was measured:
Assay type in all cases: in vivo, healthy men
[1] = tested on: sweet taste of sweet-tasting products (panel members); assay: Inhibition of sweet taste of sweet products, commercial sweeteners and sweet compounds by the compound of example 3; set-up: key to Perceived sweet taste: ++: Strong perception of sweet taste; key to Perception of sweet taste following the addition of the compound of example 3: <<+: Weak or absent perception of sweet taste; conditions: for Perception of sweet taste following the addition of the compound of example 3 / Sweet taste of the solution with an addition of the compound of example 3 (in words): 5 mg in 20 ml 20% aqueous ethanol plus 5 mg compound of example 3; for Perceived sweet taste: 5 mg in 20 ml 20% aqueous ethanol, without compound of example 3
Experimental: Evaluation of the degree of sweetness of the compounds according to the present invention was performed using a 5-volunteer panel-healthy men-henceforth referred to as panel members. All panel members were informed of the need to maintain safety procedures during the evaluation of the compounds according to the present invention, In particular, of the need to avoid swallowing the tested solutions. Each of the panel members received a 10 ml sample of a solution in a small vial and rinsed out their mouth with the entire contents of the vial for 20 seconds and then spit out the tested solution. Next, they carefully rinsed out their mouth with a large volume of distilled water (at least 150 ml) for at least 30 seconds. When the panel member felt that they no longer perceived any taste, they could proceed with the evaluation of the next solution. Solutions of sweet products were prepared (saccharose, glucose, bee honey, glycine), by dissolving 100 mg of the product in 5 ml 20% aqueous ethanol. Two solutions are prepared of each product. One of these solutions is supplemented with a compound according to example 3 of the present invention (100 mg). Next, the taste of both solutions is compared for evaluating the qualitative perception of the taste of both solutions, proceeding according to the procedure established above, for the qualitative evaluation of the perception of sweet taste. The study results are compiled in Table 4. Solutions of commercially available sweeteners were prepared (“Sweet Top®” containing aspartame and […]®” containing sorbitol, sodium cyclamate and sodium saccharinate), by dissolving 5 mg of the sweetener in 20 ml of 20% aqueous ethanol. Each sweetener solution was made up twice. One of these solutions was supplemented with a compound according to example 3 of the present invention (5 mg). Next, the taste of both solutions was evaluated proceeding according to the procedure shown above, for the qualitative evaluation of the perception of sweet taste. The study results are compiled in Table 4. Solutions of compounds with a sweet taste according to the present invention were prepared (compounds of examples 1, 2 and 6), dissolving 5 mg of the compound according to the present invention in 20 ml 20% of aqueous ethanol. Two solutions were made of each compound of examples 1, 2 and 6. One of these solutions was supplemented with the compound of example 3 according to the present invention (5 mg). Next, the taste of both solutions was evaluated proceeding according to the above procedure for the qualitative evaluation of the perception of sweet taste. The study results are compiled in Table 4.

[2] = tested on: perception of sweetness (panel members); assay: Comparative analysis of the intensity of the sweet taste against a 10% saccharose reference solution; conditions: for Results of sweetness comparisons against the reference solution [+] (sample sweeter) / Results of sweetness comparisons against the reference solution [=] (unable to tell) / Results of sweetness comparisons against the reference solution [−] (sample less sweet): count out of 10 comparative tests, reference 10% saccharose in 20% ethanol
From the text: During the next stage, we performed a comparative analysis of the intensity of the sweet taste. In the study we used the compound of example 1 (3-benzyl-aminomethylenedihydrofuran-2-one). The subject of the study consisted of samples of the initial 4000 ppm solution, and samples of diluted solutions containing 2000, 1000, 800 and 500 ppm of the compound of example 1.
The reference solution comprised 10% saccharose (wt./wt.) in 20% ethanol, containing 100000 ppm (wt./wt.) saccharose.
The study operator gave the panel members samples of the compound with the formula 1 marked with randomly generated 3-digit numbers, and also samples of the reference solution of saccharose in order to compare the perception of sweetness to the saccharose reference solution. Each of the 5 panel members received for comparison random samples of the solutions of the compound of example 1, twice, containing 4000 ppm, 2000 ppm, 1000 ppm, 800 ppm and 500 ppm of the compound. Each concentration was thus examined in 10 comparative tests.
The task for each panel member was to determine whether a given sample is less or more sweet than the reference solution. Each of the panel members completed a form according to the following rules: if a sample was sweeter, then he placed a plus sign [+] beside the symbol of the sample, if it was less sweet, a minus sign [−], and if in doubt, an equal sign [=]. Similar to the qualitative analysis, each of the panel members received a sample of 10 ml of a solution in a small vial, gently rinsed his mouth out with it for 20 seconds and then spat out the tested solution. Next, he carefully rinsed out his mouth with a large volume of distilled water (at least 150 ml) for at least 30 seconds. When the panel member felt that he no longer perceived any taste, he could proceed with the evaluation of the next solution.

[3] = tested on: perception of sweet taste (panel members); assay: Qualitative evaluation of the perception of sweet taste by a 5-volunteer panel; set-up: key to Perception of sweet taste: +: perception of sweet taste; ++: very strong perception of sweet taste; −: absence of sweet taste; conditions: 4000 ppm solution in 20% ethanol; 10 ml mouth rinse 20 s; 5 panel members
Experimental: Compounds according to the present invention destined for testing of their taste perception modifying properties were re-crystallized from ethanol or an ethanol-water mixture.
Qualitative evaluation of the perception of sweet taste; the examined substances were dissolved in a 20% ethanol and water mixture (vol./vol.).
Three initial solutions were formulated, containing: • the compound of example 1 (3-benzylaminomethylenedihydrofuran-2-one, 4000 ppm solution-400 mg in 100 ml 20% ethanol), • compound of example 2 ((R)-3-(1-phenylethylamino)methylenedihydrofuran-2-one, 4000 ppm solution-400 mg in 100 ml 20% ethanol), • compound of example 6 (2-benzylaminomethylenecyclopentanone, 4000 ppm solution−400 mg in 100 ml 20% ethanol).
Solutions of lower concentrations were obtained through dilution, to appropriate proportions, of the initial solutions with a 20% mixture of ethanol and distilled water (vol./vol.).
(§1) Evaluation of the degree of sweetness of the compounds according to the present invention was performed using a 5-volunteer panel—healthy men—henceforth referred to as panel members. All panel members were informed of the need to maintain safety procedures during the evaluation of the compounds according to the present invention, In particular, of the need to avoid swallowing the tested solutions. Each of the panel members received a 10 ml sample of a solution in a small vial and rinsed out their mouth with the entire contents of the vial for 20 seconds and then spit out the tested solution. Next, they carefully rinsed out their mouth with a large volume of distilled water (at least 150 ml) for at least 30 seconds. When the panel member felt that they no longer perceived any taste, they could proceed with the evaluation of the next solution.
During the first stage, the panel members qualitatively examined the taste of the three initial solutions containing 4000 ppm of a compound according to the present invention. The panel members all agreed that the solutions have an intensive sweet taste.
An additional qualitative evaluation was made of compounds according to the present invention from examples 4, 7 and 9, and compounds from comparative examples 1-19, in the form of 4000 ppm solutions. […] Solutions of compounds from the comparative examples lack a sweet taste.

[4] = tested on: sweet taste of saccharose (panel members); assay: Inhibition of sweet taste of a saccharose solution, qualitative panel evaluation; set-up: key to Inhibition of sweet taste: ++: complete inhibition of sweet taste; −: lack of inhibition of sweet taste; conditions: 100 mg saccharose in 5 ml 20% aqueous ethanol plus 100 mg compound, vs saccharose solution without compound
Experimental: as §1
The inhibition of sweet taste of sweet substances or mixtures thereof by inhibitors of sweet taste according to the present invention was examine qualitatively according to the following procedure. Two samples of saccharose, each of 100 mg, are dissolved in 5 ml 20% of aqueous ethanol, and then one solution is supplemented with 100 mg of a compound of an example according to the present invention (compounds from examples 3, 5, and 8). Next, the taste of both solutions is evaluated using the procedure presented above, for the qualitative perception of a sweet taste. […] The study was also performed on compounds from comparative examples 1-19.

[5] = approximate interpretation of the dilution series, comparison with a 10% saccharose solution in 20% ethanol

Compound: O=C1OCCC1=CNCc1ccccc1 [Example 1, 3-Benzylaminomethylenedihydrofuran-2-one]
- Perception of sweet taste following the addition of the compound of example 3 [1]: <<+
- Sweet taste of the solution with an addition of the compound of example 3 (in words) [1]: only a trace perceived sweet taste
- Perceived sweet taste [1]: ++
- Results of sweetness comparisons against the reference solution [+] (sample sweeter) ([2]; 500 ppm in 20% ethanol): 2
- Results of sweetness comparisons against the reference solution [=] (unable to tell) ([2]; 500 ppm in 20% ethanol): 2
- Results of sweetness comparisons against the reference solution [−] (sample less sweet) ([2]; 500 ppm in 20% ethanol): 6
- Results of sweetness comparisons against the reference solution [+] (sample sweeter) ([2]; 800 ppm in 20% ethanol): 2
- Results of sweetness comparisons against the reference solution [=] (unable to tell) ([2]; 800 ppm in 20% ethanol): 6
- Results of sweetness comparisons against the reference solution [−] (sample less sweet) ([2]; 800 ppm in 20% ethanol): 2
- Results of sweetness comparisons against the reference solution [+] (sample sweeter) ([2]; 1000 ppm in 20% ethanol): 8
- Results of sweetness comparisons against the reference solution [−] (sample less sweet) ([2]; 1000 ppm in 20% ethanol): 2
- Results of sweetness comparisons against the reference solution [+] (sample sweeter) ([2]; 2000 ppm in 20% ethanol): 10
- Results of sweetness comparisons against the reference solution [+] (sample sweeter) ([2]; 4000 ppm in 20% ethanol): 10
- Times sweeter than saccharose [2, 5]: 200-250 times
- Times sweeter than saccharose ([2]; concluded from the initial 4000 ppm solution vs 10% saccharose reference): at least 50 times
- Sweetness of the initial solution compared with the reference solution (saccharose) ([2]; initial 4000 ppm solution vs 10% saccharose (100000 ppm) in 20% ethanol, all panel members): much sweeter than the reference solution
- Perception of sweet taste [3]: ++

Compound: C[C@@H](NC=C1CCOC1=O)c1ccccc1 [Example 2, (R)-3-(1-phenylethyl)aminomethylenedihydrofuran-2-one]
- Perception of sweet taste following the addition of the compound of example 3 [1]: <<+
- Sweet taste of the solution with an addition of the compound of example 3 (in words) [1]: does not exhibit a sweet taste
- Perceived sweet taste [1]: ++
- Times sweeter than saccharose [2, 5]: 200-250 times
- Perception of sweet taste [3]: ++

Compound: C[C@H](NC=C1CCOC1=O)c1ccccc1 [Example 3, (S)-3-(1-phenylethyl)aminomethylenedihydrofuran-2-one]
- Inhibition of sweet taste [4]: ++
- Taste of the saccharose solution with the compound [4]: practically not sweet at all

Compound: CC[C@H](NC=C1CCOC1=O)c1ccccc1 [Example 5, (S)-3-(1-phenylpropylo)aminomethylenedihydrofuran-2-one]
- Inhibition of sweet taste [4]: ++
- Taste of the saccharose solution with the compound [4]: practically not sweet at all

Compound: O=C1CCCC1=CNCc1ccccc1 [Example 6, 2-Benzylaminomethylenecyclopentanone]
- Perception of sweet taste following the addition of the compound of example 3 [1]: <<+
- Sweet taste of the solution with an addition of the compound of example 3 (in words) [1]: only a trace perceived sweet taste
- Perceived sweet taste [1]: ++
- Times sweeter than saccharose [2, 5]: at least 250 times
- Perception of sweet taste [3]: ++

Compound: C[C@H](NC=C1CCCC1=O)c1ccccc1 [Example 8, (S)-2-(1-phenylethyl)aminomethylenecyclopentanone]
- Inhibition of sweet taste [4]: ++
- Taste of the saccharose solution with the compound [4]: practically not sweet at all
